Experimental findings from US20230167073A1 (Teijin Pharma Limited, priority 2020, published 2023) are described below.

In this test the target is T1, Human TRPC6 (Homo sapiens, UniProt Q9Y210).
T1 construct: expressed in transfected cells
T1 sequence (Q9Y210 1-931): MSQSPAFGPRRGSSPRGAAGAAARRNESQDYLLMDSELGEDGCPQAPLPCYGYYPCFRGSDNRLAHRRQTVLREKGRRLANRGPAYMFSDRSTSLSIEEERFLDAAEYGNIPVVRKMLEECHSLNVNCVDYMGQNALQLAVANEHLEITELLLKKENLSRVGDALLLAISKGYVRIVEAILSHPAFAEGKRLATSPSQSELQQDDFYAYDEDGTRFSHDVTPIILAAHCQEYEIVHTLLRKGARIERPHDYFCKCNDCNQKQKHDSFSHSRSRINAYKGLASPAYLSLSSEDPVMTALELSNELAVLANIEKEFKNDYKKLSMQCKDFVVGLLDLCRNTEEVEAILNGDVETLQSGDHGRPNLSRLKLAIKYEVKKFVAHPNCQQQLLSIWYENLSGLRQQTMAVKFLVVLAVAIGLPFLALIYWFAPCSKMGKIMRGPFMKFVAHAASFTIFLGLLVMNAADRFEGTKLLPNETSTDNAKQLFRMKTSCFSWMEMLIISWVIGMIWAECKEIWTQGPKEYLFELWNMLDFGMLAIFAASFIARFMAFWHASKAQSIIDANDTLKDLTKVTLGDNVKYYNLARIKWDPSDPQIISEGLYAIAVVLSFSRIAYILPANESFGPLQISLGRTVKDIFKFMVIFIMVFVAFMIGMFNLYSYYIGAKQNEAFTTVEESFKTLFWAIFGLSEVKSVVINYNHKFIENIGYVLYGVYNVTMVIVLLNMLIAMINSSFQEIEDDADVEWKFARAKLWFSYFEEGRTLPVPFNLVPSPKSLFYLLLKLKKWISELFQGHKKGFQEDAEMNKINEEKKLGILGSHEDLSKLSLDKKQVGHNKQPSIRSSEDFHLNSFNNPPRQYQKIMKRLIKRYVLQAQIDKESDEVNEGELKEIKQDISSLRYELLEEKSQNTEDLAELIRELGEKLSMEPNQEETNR
In words: Evaluation of TRPC6 channel inhibitory activity (1), FLIPR Calcium 5 Assay Kit, OAG stimulation (Compound Nos. 1-1293). The test is classed as cell-based. The conditions noted are these: Human TRPC6 stably-expressing cells, OAG 30 μM, FLIPR Calcium 5 Assay Kit; read-out: Inhibitory activity (pIC50 class) (converted). An outline of the steps: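 Readout is pIC50 from four-parameter logistic fitting of inhibition of the OAG-evoked (30 μM final) fluorescence calcium signal. Human TRPC6 stable cells are dye-loaded with probenecid, and compound is applied 20 min ahead of agonist.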
Consider `Cn1nc(C2CCC2)cc1Oc1cc(C#N)ccc1-c1ncc(C(O)CN)cn1` (stereo not drawn) [Compound 278, 4-[5-(2-amino-1-hydroxyethyl)pyrimidin-2-yl]-3-(5-cyclobutyl-2-methylpyrazol-3-yl)oxybenzonitrile], for which the IC50 is less than 10 nM.

On to `Cc1nn(C(C)C)cc1C(=O)c1cc(C#N)ccc1-c1ncc(CN)cn1` [compound 1054, 4-[5-(aminomethyl)pyrimidin-2-yl]-3-(3-methyl-1-propan-2-ylpyrazole-4-carbonyl)benzonitrile], for which the IC50 is less than 10 nM.

Take `Cc1nc(Oc2cc(C#N)ccc2-n2cc(N3CCCNCC3=O)cn2)cc(C2CCCC2)n1` [Compound 209, 3-(6-cyclopentyl-2-methylpyrimidin-4-yl)oxy-4-[4-(2-oxo-1,4-diazepan-1-yl)pyrazol-1-yl]benzonitrile]: the IC50 is more than 1000 nM.

For `Cc1cc(Oc2cc(C#N)ccc2-c2ccc([C@H](O)CN)cn2)cc(-c2nccs2)n1` [compound 689, 4-[5-[(1S)-2-amino-1-hydroxyethyl]pyridin-2-yl]-3-[2-methyl-6-(1,3-thiazol-2-yl)pyridin-4-yl]oxybenzonitrile], the IC50 was 10 to 1000 nM.

Regarding `Cn1nc(-c2ccccn2)cc1Oc1cc(C#N)cnc1-c1ncc(CN)cn1` [compound 1287, 6-[5-(aminomethyl)pyrimidin-2-yl]-5-(2-methyl-5-pyridin-2-ylpyrazol-3-yl)oxypyridine-3-carbonitrile], the IC50 is more than 1000 nM.

As to `N#Cc1ccc(-c2ccc(CN)cn2)c(Sc2cnnc(N3CCCC3)c2)c1` [compound 1264, 4-[5-(aminomethyl)pyridin-2-yl]-3-(6-pyrrolidin-1-ylpyridazin-4-yl)sulfanylbenzonitrile], the IC50 is 10 to 1000 nM.

Regarding `Cc1cc(Oc2cc(C#N)ccc2-c2ccc(CCN)cn2)n(C)n1` [compound 299, 4-[5-(2-aminoethyl)pyridin-2-yl]-3-(2,5-dimethylpyrazol-3-yl)oxybenzonitrile], the IC50 is less than 10 nM.

Take `Cn1nc(C2CCOCC2)cc1Oc1cc(C#N)ccc1-c1ccc(C(N)CO)cn1` (stereo not drawn) [compound 514, 4-[5-(1-amino-2-hydroxyethyl)pyridin-2-yl]-3-[2-methyl-5-(oxan-4-yl)pyrazol-3-yl]oxybenzonitrile]: the IC50 was 10 to 1000 nM.

Turning to `Cn1nc(C2CC2)cc1Oc1cc(C#N)ccc1-c1ncc(CC(C)(C)N)cn1` [compound 477, 4-[5-(2-amino-2-methylpropyl)pyrimidin-2-yl]-3-(5-cyclopropyl-2-methylpyrazol-3-yl)oxybenzonitrile], the IC50 was less than 10 nM.

`CCN(CC)c1cc(Oc2cc(C#N)ccc2-c2ccc(CCN)cc2)nc(C)n1` [Compound 15, 4-[4-(2-aminoethyl)phenyl]-3-[6-(diethylamino)-2-methylpyrimidin-4-yl]oxybenzonitrile]: the IC50 was 10 to 1000 nM.

Regarding `Cc1c(Oc2cc(F)ccc2-c2ncc(CCN)cn2)cnn1CC(F)(F)F` [compound 970, 2-[2-[4-fluoro-2-[5-methyl-1-(2,2,2-trifluoroethyl)pyrazol-4-yl]oxyphenyl]pyrimidin-5-yl]ethanamine], the IC50 is more than 1000 nM.

As for `Cc1cc(Oc2nc(C#N)ccc2-c2ccc(CCN)cn2)cc(N2CCCC2)n1` [compound 1282, 5-[5-(2-aminoethyl)pyridin-2-yl]-6-(2-methyl-6-pyrrolidin-1-ylpyridin-4-yl)oxypyridine-2-carbonitrile], the IC50 is 10 to 1000 nM.

`Cc1cc(Oc2cc(C#N)ccc2-c2ccc(OCCN)cn2)cc(N2CCOCC2)n1` [compound 350, 4-[5-(2-aminoethoxy)pyridin-2-yl]-3-(2-methyl-6-morpholin-4-ylpyridin-4-yl)oxybenzonitrile]: the IC50 is 10 to 1000 nM.

As for `Cc1nn(C2CCCCC2)cc1Oc1cc(C#N)ccc1-c1ncc(CCN)cn1` [compound 864, 4-[5-(2-aminoethyl)pyrimidin-2-yl]-3-(1-cyclohexyl-3-methylpyrazol-4-yl)oxybenzonitrile], the IC50 is 10 to 1000 nM.

With `N#Cc1ccc(-c2ccc(CCN)cn2)c(Oc2cc(Cl)cnn2)c1` [Compound 88, 4-[5-(2-aminoethyl)pyridin-2-yl]-3-(5-chloropyridazin-3-yl)oxybenzonitrile], the IC50 is more than 1000 nM.

`N#Cc1ccc(-c2ccc(CCN)cc2)c(Cn2cnc(-n3cnnn3)c2)c1` [compound 1123, 4-[4-(2-aminoethyl)phenyl]-3-[[4-(tetrazol-1-yl)imidazol-1-yl]methyl]benzonitrile]: the IC50 was more than 1000 nM.

As to `Cc1nc(Oc2cc(C#N)ccc2-c2ccc(CCN)cc2)cc(N2CCC[C@H]2C#N)n1` [Compound 112, (2S)-1-[6-[2-[4-(2-aminoethyl)phenyl]-5-cyanophenoxy]-2-methylpyrimidin-4 yl]pyrrolidine-2-carbonitrile], the IC50 is less than 10 nM.

`Cc1cc(Oc2cc(C#N)ccc2-c2ccc([C@H](O)CN)cn2)cc(N2C[C@@H](C)O[C@@H](C)C2)n1` [compound 505, 4-[5-[(1S)-2-amino-1-hydroxyethyl]pyridin-2-yl]-3-[2-[(2S,6R)-2,6-dimethylmorpholin-4-yl]-6-methylpyridin-4-yl]oxybenzonitrile]: the IC50 was less than 10 nM.

Take `Cn1nc(-c2ccccn2)cc1Oc1cc(C#N)ccc1-c1ccc(CCN)cc1` [Compound 160, 4-[4-(2-aminoethyl)phenyl]-3-(2-methyl-5-pyridin-2-ylpyrazol-3-yl)oxybenzonitrile]: the IC50 is less than 10 nM.

`N#Cc1ccc(-c2ccc(CCN)nc2)c(Oc2cc(Cl)cnn2)c1` [Compound 79, 4-[6-(2-aminoethyl)pyridin-3-yl]-3-(5-chloropyridazin-3-yl)oxybenzonitrile]: the IC50 is more than 1000 nM.

With `N#Cc1ccc(-c2ncc(CN)cn2)c(Oc2cnnc(NC3COC3)c2)c1` [compound 766, 4-[5-(aminomethyl)pyrimidin-2-yl]-3-[6-(oxetan-3-ylamino)pyridazin-4-yl]oxybenzonitrile], the IC50 was more than 1000 nM.

Take `Cn1nc(C2CC2)cc1Oc1cc(C#N)ccc1-c1ncc(N)cn1` [compound 417, 4-(5-aminopyrimidin-2-yl)-3-(5-cyclopropyl-2-methylpyrazol-3-yl)oxybenzonitrile]: the IC50 is more than 1000 nM.

With `Cc1nc(Oc2cc(C#N)ccc2-c2nc([C@@H](O)CN)cs2)cc(-c2ccccc2)n1` [Compound 222, 4-[4-[(1S)-2-amino-1-hydroxyethyl]-1,3-thiazol-2-yl]-3-(2-methyl-6-phenylpyrimidin-4-yl)oxybenzonitrile], the IC50 is 10 to 1000 nM.

Take `Cc1nc(Oc2cc(C#N)ccc2-c2ccc(CCNCCC(=O)O)cc2)cc(N2CCOCC2)n1` [Compound 56, 3-[2-[4-[4-cyano-2-(2-methyl-6-morpholin-4-ylpyrimidin-4-yl)oxyphenyl]phenyl]ethylamino] propanoic acid]: the IC50 was more than 1000 nM.

Regarding `Cn1nc(C(F)F)cc1Oc1cc(C#N)ccc1-c1ncc(CCN)cn1` [compound 384, 4-[5-(2-aminoethyl)pyrimidin-2-yl]-3-[5-(difluoromethyl)-2-methylpyrazol-3-yl]oxybenzonitrile], the IC50 is less than 10 nM.

With `Cn1nc(C2CC2)cc1Oc1cc(C#N)ccc1-c1cccn2c(C[C@H](N)C(=O)O)nnc12` (stereo in doubt) [compound 581, 2-amino-3-[8-[4-cyano-2-(5-cyclopropyl-2-methylpyrazol-3-yl)oxyphenyl]-[1,2,4]triazolo[4,3-a]pyridin-3-yl]propanoic acid], the IC50 is more than 1000 nM.

On to `N#Cc1ccc(-c2ncc([C@H](O)CN)cn2)c(Oc2cc(C3CC3)nn2CC(F)(F)F)c1` [compound 411, 4-[5-[(1S)-2-amino-1-hydroxyethyl]pyrimidin-2-yl]-3-[5-cyclopropyl-2-(2,2,2-trifluoroethyl)pyrazol-3-yl]oxybenzonitrile], for which the IC50 is 10 to 1000 nM.

As for `Cn1nc(C2CC2)cc1Oc1cc(C#N)ccc1-c1ccc(C(N)CO)cn1` (stereo not drawn) [compound 421, 4-[5-(1-amino-2-hydroxyethyl)pyridin-2-yl]-3-(5-cyclopropyl-2-methylpyrazol-3-yl)oxybenzonitrile], the IC50 was 10 to 1000 nM.

For the compound `N#Cc1ccc(-c2ccc(CCN)cc2)c(Oc2sc(-c3ccccc3)nc2C#N)c1` [compound 807, 5-[2-[4-(2-aminoethyl)phenyl]-5-cyanophenoxy]-2-phenyl-1,3-thiazole-4-carbonitrile], the IC50 is 10 to 1000 nM.

As for `CCN(CC)c1cc(Oc2cc(C#N)ccc2-c2ncc([C@@H](F)CN)cn2)n(C)n1` [compound 914, 4-[5-[(1R)-2-amino-1-fluoroethyl]pyrimidin-2-yl]-3-[5-(diethylamino)-2-methylpyrazol-3-yl]oxybenzonitrile], the IC50 is less than 10 nM.
